“And” between values parts separate entries of the source, which are not always exact repeats. Identical values can stand only once. Toxic doses and inconclusive results are not listed. Rule as the data show it: active = T/C of 150% or more; inactive = T/C below 125%.
System: L1210 leukemia ip in BDF1 mice, survival T/C
Test: NCI In Vivo Anticancer Drug Screen. Data for tumor model L1210 Leukemia (intraperitoneal) in B6D2F1 (BDF1) mice
Details: endpoint: mean survival time, higher = longer survival
Summary of the method: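 Tumor cells were implanted, animals were treated, and survival was followed. The result divides the treated measurement by the vehicle-control measurement.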

[1] = dose: 100.0 mg/kg/injection, schedule: Q04DX003 (ip), vehicle: saline with Tween-80
[2] = dose: 200.0 mg/kg/injection, schedule: Q04DX003 (ip), vehicle: saline with Tween-80
[3] = dose: 400.0 mg/kg/injection, schedule: Q04DX003 (ip), vehicle: saline with Tween-80
[4] = dose: 100.0 mg/kg/injection, schedule: Q01DX009 (ip), vehicle: Klucel (hydroxypropylcellulose) (HPC)
[5] = dose: 200.0 mg/kg/injection, schedule: Q01DX009 (ip), vehicle: Klucel (hydroxypropylcellulose) (HPC)
[6] = dose: 400.0 mg/kg/injection, schedule: Q01DX009 (ip), vehicle: Klucel (hydroxypropylcellulose) (HPC)
[7] = dose: 100.0 mg/kg/injection, schedule: Q04DX003 (ip), vehicle: saline
[8] = dose: 200.0 mg/kg/injection, schedule: Q04DX003 (ip), vehicle: saline
[9] = dose: 400.0 mg/kg/injection, schedule: Q04DX003 (ip), vehicle: saline
[10] = dose: 100.0 mg/kg/injection, schedule: Q04DX003 (ip), vehicle: Klucel (hydroxypropylcellulose) (HPC)
[11] = dose: 200.0 mg/kg/injection, schedule: Q04DX003 (ip), vehicle: Klucel (hydroxypropylcellulose) (HPC)
[12] = dose: 400.0 mg/kg/injection, schedule: Q04DX003 (ip), vehicle: Klucel (hydroxypropylcellulose) (HPC)
[13] = dose: 50.0 mg/kg/injection, schedule: Q01DX001 (ip), vehicle: carboxymethylcellulose (CMC)
[14] = dose: 100.0 mg/kg/injection, schedule: Q01DX001 (ip), vehicle: carboxymethylcellulose (CMC)
[15] = dose: 200.0 mg/kg/injection, schedule: Q01DX001 (ip), vehicle: carboxymethylcellulose (CMC)
[16] = dose: 400.0 mg/kg/injection, schedule: Q01DX001 (ip), vehicle: carboxymethylcellulose (CMC)

Measured: T/C

c1ccc([Si](c2ccccc2)(c2ccccc2)c2ccc3ccccc3c2)cc1
inactive: dose: 25.6 mg/kg/injection, schedule: Q04DX002 (ip), vehicle: saline with Tween-80 87 % of control | dose: 64.0 mg/kg/injection, schedule: Q04DX002 (ip), vehicle: saline with Tween-80 90 % of control | [1] 90 % of control | dose: 160.0 mg/kg/injection, schedule: Q04DX002 (ip), vehicle: saline with Tween-80 90 % of control | [2] 88 % of control | dose: 400.0 mg/kg/injection, schedule: Q04DX002 (ip), vehicle: saline with Tween-80 90 % of control | [3] 87 % of control

CC(=O)c1nnn(-c2ccccc2)n1
inactive: dose: 100.0 mg/kg/injection, schedule: Q01DX001 (ip), vehicle: other 95 % of control and 109 % of control | dose: 200.0 mg/kg/injection, schedule: Q01DX001 (ip), vehicle: other 95 % of control and 101 % of control | dose: 400.0 mg/kg/injection, schedule: Q01DX001 (ip), vehicle: other 101 % of control

CC(C)c1ccc(/C=N/NC(=O)c2ccncc2)cc1
inactive: dose: 100.0 mg/kg/injection, schedule: Q01DX009 (ip), vehicle: saline 100 % of control

CC(=O)OC1CCC2(C)C(=CC(=O)C3C4CCC(C(C)C)C4CCC32)C1 (stereo not drawn)
inactive: dose: 75.0 mg/kg/injection, schedule: Q01DX009 (sc), vehicle: steriod suspending solution 95 % of control | dose: 75.0 mg/kg/injection, schedule: Q04DX003 (sc), vehicle: steriod suspending solution 94 % of control | dose: 150.0 mg/kg/injection, schedule: Q01DX009 (sc), vehicle: steriod suspending solution 109 % of control | dose: 150.0 mg/kg/injection, schedule: Q04DX003 (sc), vehicle: steriod suspending solution 98 % of control | dose: 300.0 mg/kg/injection, schedule: Q01DX009 (sc), vehicle: steriod suspending solution 108 % of control | dose: 300.0 mg/kg/injection, schedule: Q04DX003 (sc), vehicle: steriod suspending solution 94 % of control

CS(=O)(=O)OCCN(CCOS(C)(=O)=O)c1ccc(C=Nc2ccc(-c3cnc(-c4ccc(Cl)cc4)s3)cc2)c(Cl)c1
inactive: dose: 25.0 mg/kg/injection, schedule: Q01DX009 (ip), vehicle: Klucel (hydroxypropylcellulose) (HPC) 98 % of control | dose: 50.0 mg/kg/injection, schedule: Q01DX009 (ip), vehicle: Klucel (hydroxypropylcellulose) (HPC) 107 % of control | [4] 109 % of control

O=C(O)c1ccc(SCc2ccccc2)cc1
inactive: [4] 103 % of control | [5] 101 % of control | [6] 93 % of control

CCOC(=O)CCSCC(C)(C)C(=O)OCC
inactive: [7] 105 % of control | [8] 105 % of control | [9] 103 % of control

CC(=O)C(=Cc1ccc(Cl)c(Cl)c1)C(C)=O
inactive: [4] 100 % of control | [10] 96 % of control | [11] 96 % of control | [12] 86 % of control

CCSC1C(OC(C)=O)C(C(CSC(C)=O)OC(C)=O)OC1n1cc(C)c(=O)[nH]c1=O (stereo not drawn)
inactive: dose: 100.0 mg/kg/injection, schedule: Q01DX005 (ip), vehicle: saline 94 % of control | dose: 200.0 mg/kg/injection, schedule: Q01DX005 (ip), vehicle: saline 98 % of control

COc1c(C)cccc1[N+](=O)[O-]
inactive: [4] 104 % of control | [10] 98 % of control | [5] 101 % of control | [11] 104 % of control | [6] 101 % of control | [12] 101 % of control

CCC1CN2CCc3cc(OC)c(OC)cc3C2CC1CC1NCCc2cc(OC)c(OC)cc21 (stereo not drawn)
inactive: dose: 2.0 mg/kg/injection, schedule: Q04DX003 (ip), vehicle: water 93 % of control | dose: 4.0 mg/kg/injection, schedule: Q04DX003 (ip), vehicle: water 98 % of control | dose: 8.0 mg/kg/injection, schedule: Q04DX003 (ip), vehicle: water 94 % of control | dose: 16.0 mg/kg/injection, schedule: Q04DX003 (ip), vehicle: water 104 % of control | dose: 32.0 mg/kg/injection, schedule: Q04DX003 (ip), vehicle: water 102 % of control | dose: 64.0 mg/kg/injection, schedule: Q04DX003 (ip), vehicle: water 100 % of control

N#CC(C#N)=C1c2ccccc2C(=O)c2ccccc21
inactive: [13] 104 % of control | [14] 104 % of control | [1] 97 % of control | [15] 104 % of control | [2] 98 % of control | [16] 106 % of control | [3] 87 % of control

CC(O)CN(Cc1c(O)ccc2ccccc12)CC(C)OS(C)(=O)=O (stereo not drawn)
inactive: dose: 100.0 mg/kg/injection, schedule: Q01DX001 (ip), vehicle: saline 97 % of control | dose: 200.0 mg/kg/injection, schedule: Q01DX001 (ip), vehicle: saline 93 % of control | dose: 400.0 mg/kg/injection, schedule: Q01DX001 (ip), vehicle: saline 95 % of control

COC(=O)C1=CCCN(C)C1
inactive: dose: 3.12 mg/kg/injection, schedule: Q01DX009 (ip), vehicle: saline 103 % of control | dose: 6.25 mg/kg/injection, schedule: Q01DX009 (ip), vehicle: saline 101 % of control | dose: 12.5 mg/kg/injection, schedule: Q01DX009 (ip), vehicle: saline 98 % of control | dose: 12.5 mg/kg/injection, schedule: Q04DX003 (ip), vehicle: saline 93 % of control | dose: 20.0 mg/kg/injection, schedule: Q01DX009 (ip), vehicle: saline 93 % of control | dose: 20.0 mg/kg/injection, schedule: Q04DX003 (ip), vehicle: saline 97 % of control | dose: 25.0 mg/kg/injection, schedule: Q01DX009 (ip), vehicle: saline 98 % of control | dose: 25.0 mg/kg/injection, schedule: Q04DX003 (ip), vehicle: saline 95 % of control and 94 % of control | dose: 40.0 mg/kg/injection, schedule: Q01DX009 (ip), vehicle: saline 92 % of control | dose: 40.0 mg/kg/injection, schedule: Q04DX003 (ip), vehicle: saline 94 % of control | dose: 50.0 mg/kg/injection, schedule: Q01DX009 (ip), vehicle: saline 106 % of control | dose: 50.0 mg/kg/injection, schedule: Q04DX003 (ip), vehicle: saline 103 % of control and 94 % of control | dose: 80.0 mg/kg/injection, schedule: Q01DX009 (ip), vehicle: saline 90 % of control | dose: 80.0 mg/kg/injection, schedule: Q04DX003 (ip), vehicle: saline 100 % of control

CC(=O)Nc1cc(C)ns1
inactive: [13] 104 % of control | [14] 104 % of control | [15] 101 % of control | [16] 98 % of control

O=C1NC2CC=CCC12 (stereo not drawn)
inactive: dose: 100.0 mg/kg/injection, schedule: Q01DX009 (ip), vehicle: saline with Tween-80 91 % of control | [7] 101 % of control | dose: 200.0 mg/kg/injection, schedule: Q01DX009 (ip), vehicle: saline with Tween-80 89 % of control | [8] 101 % of control | dose: 400.0 mg/kg/injection, schedule: Q01DX009 (ip), vehicle: saline with Tween-80 89 % of control | [9] 94 % of control
